Laboratory results published in the supplement of paper PMC10307832.

What was measured:
Experiment in all cases: relative viability (nuclei count vs DMSO), 5 days (fraction); higher = more cells survive
NCI-H1975 = test system: NCI-H1975
In short: (§1)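 One day after seeding in 1536-well plates, lung cancer cell lines were dosed by pin tool. Dosing was either single-drug or a fixed anchor-drug dose plus five library-drug doses (not always all listed) in √10 steps. After 5 days, nuclei were stained in one fix-and-stain step and counted on 4× images, and relative viability is the nuclei count of treated wells over that of vehicle wells, given as the median of duplicate plates.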

NCI-H2170 = test system: NCI-H2170
In short: as §1

HCC-827 = test system: HCC-827
In short: as §1

NCI-H520 = test system: NCI-H520
In short: as §1

SW 900 = test system: SW 900
In short: as §1

LXF-289 = test system: LXF-289
In short: as §1

NCI-H1915 = test system: NCI-H1915
In short: as §1

NCI-H1944 = test system: NCI-H1944
In short: as §1

SW 1573 = test system: SW 1573
In short: as §1

LCLC-103H = test system: LCLC-103H
In short: as §1

SK-MES-1 = test system: SK-MES-1
In short: as §1

NCI-H2023 = test system: NCI-H2023
In short: as §1

NCI-H2087 = test system: NCI-H2087
In short: as §1

COR-L 105 = test system: COR-L 105
In short: as §1

LOU-NH91 = test system: LOU-NH91
In short: as §1

H3255 = test system: H3255
In short: as §1

NCI-H358 = test system: NCI-H358
In short: as §1

NCI-H1793 = test system: NCI-H1793
In short: as §1

A-427 = test system: A-427
In short: as §1

NCI-H1993 = test system: NCI-H1993
In short: as §1

Question: How did the relative viability (NCI-H1975; first compound 0.002 µM) turn out when `CCNC(=O)c1noc(-c2cc(C(C)C)c(O)cc2O)c1-c1ccc(CN2CCOCC2)cc1` [Luminespib] + COc1cc2c(Oc3ccc(NC(=O)C4(C(=O)Nc5ccc(F)cc5)CC4)cc3F)ccnc2cc1OCCCN1CCOCC1 [Foretinib] (partner 0.25 µM) was run?
Answer: 1.07

Question: What about the relative viability (NCI-H1975; first compound 0.006325 µM) of the same molecule?
Answer: 0.97

Question: What about the relative viability (NCI-H1975; first compound 0.02 µM) of the same molecule?
Answer: 0.615

Question: And the relative viability (NCI-H1975; first compound 0.06325 µM)?
Answer: 0.0994

Question: What about the relative viability (NCI-H1975; first compound 0.2 µM) of the same molecule?
Answer: 0.108

Question: What about the relative viability (NCI-H2170; first compound 0.002 µM) of the same molecule?
Answer: 0.986

Question: And the relative viability (NCI-H2170; first compound 0.006325 µM)?
Answer: 0.973

Question: And the relative viability (NCI-H2170; first compound 0.02 µM)?
Answer: 0.806

Question: And the relative viability (NCI-H2170; first compound 0.06325 µM)?
Answer: 0.72

Question: What about the relative viability (NCI-H2170; first compound 0.2 µM) of the same molecule?
Answer: 0.181

Question: And the relative viability (HCC-827; first compound 0.002 µM)?
Answer: 1.06

Question: And the relative viability (HCC-827; first compound 0.006325 µM)?
Answer: 0.971

Question: And the relative viability (HCC-827; first compound 0.02 µM)?
Answer: 0.869

Question: And the relative viability (HCC-827; first compound 0.06325 µM)?
Answer: 0.692

Question: And the relative viability (HCC-827; first compound 0.2 µM)?
Answer: 0.152

Question: What about the relative viability (NCI-H520; first compound 0.002 µM) of the same molecule?
Answer: 1.09

Question: What about the relative viability (NCI-H520; first compound 0.006325 µM) of the same molecule?
Answer: 0.659

Question: What about the relative viability (NCI-H520; first compound 0.02 µM) of the same molecule?
Answer: 0.651

Question: What about the relative viability (NCI-H520; first compound 0.06325 µM) of the same molecule?
Answer: 0.147

Question: And the relative viability (NCI-H520; first compound 0.2 µM)?
Answer: 0.162

Question: And the relative viability (SW 900; first compound 0.002 µM)?
Answer: 0.966

Question: And the relative viability (SW 900; first compound 0.006325 µM)?
Answer: 0.742

Question: And the relative viability (SW 900; first compound 0.02 µM)?
Answer: 0.813

Question: And the relative viability (SW 900; first compound 0.06325 µM)?
Answer: 0.134

Question: And the relative viability (SW 900; first compound 0.2 µM)?
Answer: 0.117

Question: And the relative viability (LXF-289; first compound 0.002 µM)?
Answer: 0.993

Question: What about the relative viability (LXF-289; first compound 0.006325 µM) of the same molecule?
Answer: 0.979

Question: What about the relative viability (LXF-289; first compound 0.02 µM) of the same molecule?
Answer: 1.2

Question: What about the relative viability (LXF-289; first compound 0.06325 µM) of the same molecule?
Answer: 0.547

Question: What about the relative viability (LXF-289; first compound 0.2 µM) of the same molecule?
Answer: 0.323

Question: What about the relative viability (NCI-H1915; first compound 0.002 µM) of the same molecule?
Answer: 1.13

Question: And the relative viability (NCI-H1915; first compound 0.006325 µM)?
Answer: 1.04

Question: What about the relative viability (NCI-H1915; first compound 0.02 µM) of the same molecule?
Answer: 1.02

Question: And the relative viability (NCI-H1915; first compound 0.06325 µM)?
Answer: 1.05

Question: What about the relative viability (NCI-H1915; first compound 0.2 µM) of the same molecule?
Answer: 0.826

Question: And the relative viability (NCI-H1944; first compound 0.002 µM)?
Answer: 0.937

Question: What about the relative viability (NCI-H1944; first compound 0.006325 µM) of the same molecule?
Answer: 0.884

Question: What about the relative viability (NCI-H1944; first compound 0.02 µM) of the same molecule?
Answer: 0.653

Question: What about the relative viability (NCI-H1944; first compound 0.06325 µM) of the same molecule?
Answer: 0.767

Question: And the relative viability (NCI-H1944; first compound 0.2 µM)?
Answer: 0.419

Question: And the relative viability (SW 1573; first compound 0.002 µM)?
Answer: 0.91

Question: And the relative viability (SW 1573; first compound 0.006325 µM)?
Answer: 0.766

Question: And the relative viability (SW 1573; first compound 0.02 µM)?
Answer: 0.521

Question: What about the relative viability (SW 1573; first compound 0.06325 µM) of the same molecule?
Answer: 0.148

Question: And the relative viability (SW 1573; first compound 0.2 µM)?
Answer: 0.119

Question: What about the relative viability (LCLC-103H; first compound 0.002 µM) of the same molecule?
Answer: 0.826

Question: And the relative viability (LCLC-103H; first compound 0.006325 µM)?
Answer: 0.778

Question: What about the relative viability (LCLC-103H; first compound 0.02 µM) of the same molecule?
Answer: 0.757

Question: And the relative viability (LCLC-103H; first compound 0.06325 µM)?
Answer: 0.87

Question: What about the relative viability (LCLC-103H; first compound 0.2 µM) of the same molecule?
Answer: 0.362

Question: What about the relative viability (SK-MES-1; first compound 0.002 µM) of the same molecule?
Answer: 0.829

Question: What about the relative viability (SK-MES-1; first compound 0.006325 µM) of the same molecule?
Answer: 0.804

Question: And the relative viability (SK-MES-1; first compound 0.02 µM)?
Answer: 0.777

Question: And the relative viability (SK-MES-1; first compound 0.06325 µM)?
Answer: 0.138

Question: What about the relative viability (SK-MES-1; first compound 0.2 µM) of the same molecule?
Answer: 0.156

Question: What about the relative viability (NCI-H2023; first compound 0.002 µM) of the same molecule?
Answer: 0.739

Question: What about the relative viability (NCI-H2023; first compound 0.006325 µM) of the same molecule?
Answer: 0.884

Question: And the relative viability (NCI-H2023; first compound 0.02 µM)?
Answer: 0.438

Question: And the relative viability (NCI-H2023; first compound 0.06325 µM)?
Answer: 0.123

Question: What about the relative viability (NCI-H2023; first compound 0.2 µM) of the same molecule?
Answer: 0.0586

Question: And the relative viability (NCI-H2087; first compound 0.002 µM)?
Answer: 1.11

Question: And the relative viability (NCI-H2087; first compound 0.006325 µM)?
Answer: 1.1

Question: And the relative viability (NCI-H2087; first compound 0.02 µM)?
Answer: 1.37

Question: What about the relative viability (NCI-H2087; first compound 0.06325 µM) of the same molecule?
Answer: 0.118

Question: And the relative viability (NCI-H2087; first compound 0.2 µM)?
Answer: 0.113

Question: What about the relative viability (COR-L 105; first compound 0.002 µM) of the same molecule?
Answer: 0.885

Question: And the relative viability (COR-L 105; first compound 0.006325 µM)?
Answer: 1.04

Question: And the relative viability (COR-L 105; first compound 0.02 µM)?
Answer: 1.07

Question: What about the relative viability (COR-L 105; first compound 0.06325 µM) of the same molecule?
Answer: 0.436

Question: And the relative viability (COR-L 105; first compound 0.2 µM)?
Answer: 0.273

Question: What about the relative viability (LOU-NH91; first compound 0.002 µM) of the same molecule?
Answer: 0.922

Question: What about the relative viability (LOU-NH91; first compound 0.006325 µM) of the same molecule?
Answer: 0.95

Question: And the relative viability (LOU-NH91; first compound 0.02 µM)?
Answer: 0.577

Question: What about the relative viability (LOU-NH91; first compound 0.06325 µM) of the same molecule?
Answer: 0.378

Question: And the relative viability (LOU-NH91; first compound 0.2 µM)?
Answer: 0.298

Question: What about the relative viability (H3255; first compound 0.002 µM) of the same molecule?
Answer: 0.785

Question: And the relative viability (H3255; first compound 0.006325 µM)?
Answer: 0.821

Question: And the relative viability (H3255; first compound 0.06325 µM)?
Answer: 0.833

Question: What about the relative viability (H3255; first compound 0.2 µM) of the same molecule?
Answer: 0.329

Question: What about the relative viability (NCI-H358; first compound 0.002 µM) of the same molecule?
Answer: 0.69

Question: What about the relative viability (NCI-H358; first compound 0.006325 µM) of the same molecule?
Answer: 0.705

Question: And the relative viability (NCI-H358; first compound 0.02 µM)?
Answer: 0.631

Question: What about the relative viability (NCI-H358; first compound 0.06325 µM) of the same molecule?
Answer: 0.06

Question: What about the relative viability (NCI-H358; first compound 0.2 µM) of the same molecule?
Answer: 0.0569

Question: And the relative viability (NCI-H1793; first compound 0.002 µM)?
Answer: 0.739

Question: What about the relative viability (NCI-H1793; first compound 0.006325 µM) of the same molecule?
Answer: 0.892

Question: What about the relative viability (NCI-H1793; first compound 0.02 µM) of the same molecule?
Answer: 0.472

Question: What about the relative viability (NCI-H1793; first compound 0.06325 µM) of the same molecule?
Answer: 0.551

Question: What about the relative viability (NCI-H1793; first compound 0.2 µM) of the same molecule?
Answer: 0.189

Question: What about the relative viability (A-427; first compound 0.002 µM) of the same molecule?
Answer: 1.14

Question: And the relative viability (A-427; first compound 0.006325 µM)?
Answer: 0.969

Question: What about the relative viability (A-427; first compound 0.02 µM) of the same molecule?
Answer: 0.84

Question: And the relative viability (A-427; first compound 0.06325 µM)?
Answer: 1.06

Question: What about the relative viability (A-427; first compound 0.2 µM) of the same molecule?
Answer: 1.1

Question: And the relative viability (NCI-H1993; first compound 0.002 µM)?
Answer: 0.772

Question: And the relative viability (NCI-H1993; first compound 0.006325 µM)?
Answer: 0.779

Question: What about the relative viability (NCI-H1993; first compound 0.02 µM) of the same molecule?
Answer: 0.632

Question: What about the relative viability (NCI-H1993; first compound 0.06325 µM) of the same molecule?
Answer: 0.549

Question: And the relative viability (NCI-H1993; first compound 0.2 µM)?
Answer: 0.482
